Values joined by “and” are separate entries in the source; they are usually repeats but may differ in a detail not shown here. Equal entries are not always repeated.
Tests used:
[1] = system: diaphorase; test: Formation of formazan dyes: NADH and diaphorase, absence of malate (TABLE 7); type: biochemical, Clostridium kluyveri
[2] = system: diaphorase; test: Formation of formazan dyes: NADH, diaphorase and malate (TABLE 8); type: biochemical, Clostridium kluyveri
[3] = system: Malate dehydrogenase and diaphorase; test: Formation of formazan dyes: Malate dehydrogenase and diaphorase, absence of malate (TABLE 9); type: biochemical, pig heart
[4] = system: Malate dehydrogenase and diaphorase; test: Formation of formazan dyes: Malate dehydrogenase, diaphorase and malate (TABLE 10); type: biochemical, pig heart
[5] = system: oral lavage; test: Formation of formazan dyes: oral lavage and diaphorase, not malate (TABLE 11); type: biochemical, human
[6] = system: oral lavage; test: Formation of formazan dyes: oral lavage, malate and diaphorase (TABLE 12); type: biochemical, human
[7] = Formation of formazan dyes: NADH and 1-methoxy PMS, absence of malate (TABLE 15); type: biochemical
[8] = system: oral lavage; test: Formation of formazan dyes: oral lavage and 1-Methoxy PMS, absence of malate (TABLE 19); type: biochemical, human
[9] = system: oral lavage; test: Formation of formazan dyes: oral lavage, malate and 1-Methoxy PMS (TABLE 20); type: biochemical, human
[10] = Formation of formazan dyes: control buffer and 1-Methoxy PMS, absence of malate (TABLE 21); type: biochemical
[11] = Formation of formazan dyes: control buffer, malate and 1-Methoxy PMS (TABLE 22); type: biochemical
[12] = biological target: T1, Malate dehydrogenase (Sus scrofa, UniProt P00346); test: Formation of formazan dyes: Malate dehydrogenase and 1-Methoxy PMS, absence of malate (TABLE 17); type: biochemical, pig heart; set-up: L-malate dehydrogenase (pig heart); purchased Sigma-Aldrich 10127248001 / 10127914001
T1 sequence (P00346 25-338): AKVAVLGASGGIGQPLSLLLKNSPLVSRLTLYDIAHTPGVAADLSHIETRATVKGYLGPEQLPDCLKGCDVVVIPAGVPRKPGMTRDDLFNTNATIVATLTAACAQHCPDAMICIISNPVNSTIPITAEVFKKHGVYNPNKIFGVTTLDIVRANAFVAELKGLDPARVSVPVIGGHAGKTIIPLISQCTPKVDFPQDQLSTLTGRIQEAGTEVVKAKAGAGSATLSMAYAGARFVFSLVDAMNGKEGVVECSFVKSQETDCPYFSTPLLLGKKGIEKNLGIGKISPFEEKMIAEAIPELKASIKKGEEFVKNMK

## COc1cc(-c2ccc(-n3nc(-c4ccccc4)n[n+]3-c3ccc([N+](=O)[O-])cc3)c(OC)c2)ccc1-n1nc(-c2ccccc2)n[n+]1-c1ccc([N+](=O)[O-])cc1 [Nitro-TB, 3,3′-[3,3′-Dimethoxy-(1,1′-biphenyl)-4,4′-diyl]-bis[2-(4-nitrophenyl)-5-phenyl-2H-tetrazolium chloride]
[1]
  Formation of formazan dyes, absorbance, Means 0 h: 1.49
  Formation of formazan dyes, absorbance, Means 1 h: 1.71
  Formation of formazan dyes, absorbance, Means 2 h: 1.73
  Formation of formazan dyes, absorbance, Means 3 h: 1.71
  Formation of formazan dyes, absorbance, Means 4 h: 1.74
  Formation of formazan dyes, absorbance, Means 6 h: 1.86
  Formation of formazan dyes, absorbance, Means 8 h: 1.83
  Formation of formazan dyes, absorbance, Means 10 h: 1.85
  Formation of formazan dyes, absorbance, Means 12 h: 1.82
[2]
  Formation of formazan dyes, absorbance, Means 0 h: 1.03
  Formation of formazan dyes, absorbance, Means 1 h: 1.15
  Formation of formazan dyes, absorbance, Means 2 h: 1.16
  Formation of formazan dyes, absorbance, Means 3 h: 1.17
  Formation of formazan dyes, absorbance, Means 4 h: 1.22
  Formation of formazan dyes, absorbance, Means 6 h: 1.27
  Formation of formazan dyes, absorbance, Means 8 h: 1.33
  Formation of formazan dyes, absorbance, Means 10 h: 1.37
  Formation of formazan dyes, absorbance, Means 12 h: 1.42
[3]
  Formation of formazan dyes, absorbance, Means 0 h: 0.15
  Formation of formazan dyes, absorbance, Means 1 h: 0.20
  Formation of formazan dyes, absorbance, Means 2 h: 0.23
  Formation of formazan dyes, absorbance, Means 3 h: 0.25
  Formation of formazan dyes, absorbance, Means 4 h: 0.36
  Formation of formazan dyes, absorbance, Means 6 h: 0.39
  Formation of formazan dyes, absorbance, Means 8 h: 0.40
  Formation of formazan dyes, absorbance, Means 10 h: 0.41
  Formation of formazan dyes, absorbance, Means 12 h: 0.42
  reduction of tetrazolium dye in the absence of substrate malate: remained largely in oxidized forms
[4]
  Formation of formazan dyes, absorbance, Means 0 h: 0.56
  Formation of formazan dyes, absorbance, Means 1 h: 0.88
  Formation of formazan dyes, absorbance, Means 2 h: 1.08
  Formation of formazan dyes, absorbance, Means 3 h: 1.23
  Formation of formazan dyes, absorbance, Means 4 h: 1.46
  Formation of formazan dyes, absorbance, Means 6 h: 1.73
  Formation of formazan dyes, absorbance, Means 8 h: 1.95
  Formation of formazan dyes, absorbance, Means 10 h: 2.16
  Formation of formazan dyes, absorbance, Means 12 h: 2.35
  conversion to reduced formazan dyes: converted to reduced formazan dyes in a time-dependent manner
[5]
  Formation of formazan dyes, absorbance, Means 0 h: 0.56
  Formation of formazan dyes, absorbance, Means 1 h: 0.79
  Formation of formazan dyes, absorbance, Means 2 h: 0.85
  Formation of formazan dyes, absorbance, Means 3 h: 0.81
  Formation of formazan dyes, absorbance, Means 4 h: 0.88
  Formation of formazan dyes, absorbance, Means 6 h: 0.87
  Formation of formazan dyes, absorbance, Means 8 h: 0.88
  Formation of formazan dyes, absorbance, Means 10 h: 0.86
  Formation of formazan dyes, absorbance, Means 12 h: 0.87
  reduction to formazan dyes by pooled oral lavage: changed to formazan dyes in a significant amount
[6]
  Formation of formazan dyes, absorbance, Means 0 h: 0.52
  Formation of formazan dyes, absorbance, Means 1 h: 0.75
  Formation of formazan dyes, absorbance, Means 2 h: 0.80
  Formation of formazan dyes, absorbance, Means 3 h: 0.75
  Formation of formazan dyes, absorbance, Means 4 h: 0.88
  Formation of formazan dyes, absorbance, Means 6 h: 1.00
  Formation of formazan dyes, absorbance, Means 8 h: 1.09
  Formation of formazan dyes, absorbance, Means 10 h: 1.20
  Formation of formazan dyes, absorbance, Means 12 h: 1.30
[7]
  formation of formazan dyes / precipitates with 1-methoxy PMS and NADH: formed precipitates
[8]
  Absorbance, formation of formazan dyes (Means): 0.52 and 0.58 and 0.61 and 0.63 and 0.60 and 0.68 and 0.73 and 0.82
[9]
  Absorbance, formation of formazan dyes (Means): 0.35 and 0.37 and 0.40 and 0.43 and 0.29 and 0.30 and 0.31
[10]
  Absorbance, formation of formazan dyes (Means): 0.33 and 0.41 and 0.42 and 0.44 and 0.39 and 0.45 and 0.43
[11]
  Means absorbance 0 h: 0.16
  Means absorbance 1 h: 0.16
  Means absorbance 2 h: 0.17
  Means absorbance 3 h: 0.19
  Means absorbance 4 h: 0.19
  Means absorbance 6 h: 0.24
  Means absorbance 8 h: 0.29
  Means absorbance 10 h: 0.18
  Means absorbance 12 h: 0.23
[12]
  Absorbance, formation of formazan dyes (Means): 0.31 and 0.40 and 0.39 and 0.35 and 0.36 and 0.32 and 0.41

— US20180320217A1, “METHODS FOR SAMPLING AND MEASURING ORAL LAVAGE PROTEINS” (The Procter & Gamble Company, priority 2017, published 2018)
